A short description of this data set: Analysis of radioactivity in the formulations: trans/cis isomer content. The class given is physicochemical. As to conditions: 14C radioactivity in formulation extracts. The source says: The different degree of isomerization could be explained by the extent of light exposure during the preparation of the cream and/or during the extraction procedure in the course of the series of experiments.

With “[phenyl-^14C]-resveratrol [^14C-Resveratrol stock solution]”, the Resveratrol cis isomer stood at 0% and the Resveratrol trans-isomer worked out at 100%.

(Values after patent US20130315848A1, “COSMETIC COMPOSITION FOR SKIN WHITENING COMPRISING RESVERATROL” (DSM IP ASSETS B.V., priority 2010, published 2013).)
